Source: PMC8954733, “Microbial Transformation and Biological Activities of the Prenylated Aromatic Compounds from Broussonetia kazinoki” (Molecules, 2022)
Read-outs that look alike come from different tables or passages of the source.

Legend:
[1] = tested on: B16F1 (mouse melanoma) cell line; experiment: MTT cytotoxicity assay, B16F1; format: cell-based; settings: 24 h treatment, mean ± SD, read-out: Cytotoxic effect IC50, cell line B16F1
Method: (§1) To evaluate the anticancer potential of compounds 1–11, an MTT assay was used to determine the cell viability of human melanoma (A375P) and murine melanoma (B16F10 and B16F1) cell lines following a 24 h treatment with compounds 1–11.
(§2) The cytotoxic activities of all the compounds (1–11) were evaluated using the MTT assay. Briefly, the A375P (human melanoma), B16F10 and B16F1 (mouse melanoma) cell lines obtained from the Korean Cell Line Bank (Seoul, Korea) were cultured in Dulbecco’s Modified Eagle’s Medium (DMEM) (Gibco, CA, USA) containing penicillin (100 units/mL)-streptomycin (100 µg/mL) (Gibco, CA, USA) and 5% heat-inactivated fetal bovine serum (FBS) (Welgene, Korea) in a humidified chamber with 5% CO2 at 37 °C. The cells were seeded in 96-well plates at a density of 6 × 10^3 cells/well and incubated for 24 h. The medium was then aspirated and replaced with 100 μL of fresh medium containing various concentrations of the test compound. After incubation for a further 24 h, the compound containing the medium was replaced with 100 μL of a MTT solution (0.5 mg/mL) and incubated for 4 h. Then the insoluble formazan crystals were dissolved in 100 µL of DMSO and measured at 490 nm on a microplate reader.

[2] = tested on: B16F10 (mouse melanoma) cell line; experiment: MTT cytotoxicity assay, B16F10; format: cell-based; settings: 24 h treatment, mean ± SD, read-out: Cytotoxic effect IC50, cell line B16F10
Method: as §1, §2

mushroom tyrosinase = experiment: Mushroom tyrosinase inhibition (L-tyrosine substrate, dopachrome absorbance at 490 nm); format: biochemical; settings: L-tyrosine as substrate, 30 min at 37 °C, mean ± SD, read-out: Anti-Tyrosinase IC50
Method: All the compounds were investigated for their tyrosinase inhibitory effects using L-tyrosine as the substrate. […] All the compounds were first dissolved in dimethyl sulfoxide (DMSO) and then diluted into different concentrations (1, 2, 4, 10, 40, 80, and 160 µM). An amount of 100 µL of each sample solution and 50 µL of the 2 mM L-tyrosine solution in 0.1 M phosphate buffer (pH 6.5) were added to 96-well microplates. After incubation at room temperature for 5 min, 50 µL of mushroom tyrosinase (300 U/mL in phosphate buffer) was added to each well. After further incubation for 30 min under 37 °C, the absorbance of dopachrome produced in the mixture was determined at 490 nm with a microplate reader (SpectraMax 190; Molecular Devices, Sunnyvale, CA, USA). The percent of inhibition of tyrosinase activity was calculated using the formula: % inhibition = (A − B)/A × 100, in which A is the absorbance at 490 nm without the test sample, and B is the absorbance at 490 nm with the test sample. IC50 values were calculated from the mean values of data from four determinations.

[3] = tested on: A375P (human melanoma) cell line; experiment: MTT cytotoxicity assay, A375P; format: cell-based; settings: 24 h treatment, mean ± SD, read-out: Cytotoxic effect IC50, cell line A375P
Method: as §1, §2

IC50 (mushroom tyrosinase) [µM]	Structure (SMILES)	IC50 ([1]; Mus musculus, B16-F1, 24 h) [µM]	IC50 ([2]; Mus musculus, B16-F10, 24 h) [µM]	IC50 ([3]; Homo sapiens, A375P, 24 h) [µM]	IC50 [1] [µM]	IC50 [2] [µM]	IC50 [3] [µM]
2.12 ± 0.21	CC(C)=CCc1c(CCCc2ccc(O)cc2O)cc(O)c(O)c1CC=C(C)C [Compound 3, Kazinol F]	13.8 ± 0.88	19.9 ± 0.73	18.16 ± 0.09	–	–	–
24.1 ± 0.3	CC(C)=CCc1c([C@H]2Oc3cc(O)cc(O)c3C(=O)[C@@H]2O)cc(O)c(O)c1CC=C(C)C [Compound 4, (2R,3R)-3,5,7,3′,4′-pentahydroxy-5′,6′-diprenylflavanonol]	24.4 ± 1.82	27.8 ± 0.63	13.8 ± 1	–	–	–
> 80	C=CC(C)(C)c1cc(CCCc2cc(O[C@@H]3O[C@H](CO)[C@@H](O)[C@H](O)[C@H]3O)c(O)c(CC=C(C)C)c2CC=C(C)C)c(O)cc1O [Compound 6, Kazinol C-3″-O-β-D-glucopyranoside]	> 80	> 80	> 80	–	–	–
0.71 ± 0.01	CC(C)=CCc1c(CCCc2ccc(O)cc2O)cc(O)c(O[C@@H]2O[C@H](CO)[C@@H](O)[C@H](O)[C@H]2O)c1CC=C(C)C [Compound 11, Kazinol F-4″-O-β-D-glucopyranoside]	> 80	> 80	> 80	–	–	–
> 80	C=CC(C)(C)c1cc2c(cc1O)O[C@H](c1cc(O)c(O)c(CC=C(C)C)c1CC=C(C)C)CC2 [Compound 2, Kazinol E]	13.3 ± 0.22	12.1 ± 0.87	11.5 ± 0.24	–	–	–
> 80	C=CC(C)(C)c1cc(CCCc2cc(O[C@@H]3O[C@H](CO)[C@@H](O)[C@H](O)[C@H]3O)c(O[C@@H]3O[C@H](CO)[C@@H](O)[C@H](O)[C@H]3O)c(CC=C(C)C)c2CC=C(C)C)c(O)cc1O [Compound 9, kazinol C-3″,4″-di-O-β-D-glucopyranoside]	> 80	> 80	> 80	–	–	–
–	O=c1[nH]cc(F)c(=O)[nH]1 [Compound 5-FU, 5-FU, reference compound]	–	–	–	12.8 ± 0.16	4.61 ± 0.16	13.1 ± 1.55
> 80	C=CC(C)(C)c1cc(CCCc2cc(O)c3c(c2CC=C(C)C)C[C@H](C(C)(C)OC)O3)c(O)cc1O [Compound 5, 5′-(2-methylbut-3-en-2-yl)-6″-(3-methylbut-2-enyl)-4″,5″-[(R)-2-(1-methoxy-1-methylethyl)]-dihydrofuranyl-2′,4′,3″-trihydroxydiphenylpropane]	17.3 ± 0.22	43.2 ± 0.71	45.9 ± 0.65	–	–	–
> 80	C=CC(C)(C)c1cc(CCCc2cc(O)c(O)c(CC=C(C)C)c2CC=C(C)C)c(O)cc1O [Compound 1, Kazinol C]	17.6 ± 0.33	26 ± 0.33	12.1 ± 0.24	–	–	–
> 80	C=CC(C)(C)c1cc(CCCc2cc(O)c(O[C@@H]3O[C@H](CO)[C@@H](O)[C@H](O)[C@H]3O)c(CC=C(C)C)c2CC=C(C)C)c(O)cc1O [Compound 8, Kazinol C-4″-O-β-D-glucopyranoside]	> 80	> 80	> 80	–	–	–
> 80	C=CC(C)(C)c1cc(CCCc2cc(O[C@@H]3O[C@H](CO)[C@@H](O)[C@H](O)[C@H]3O)c(O)c(CC=C(C)C)c2CC=C(C)C)c(O[C@@H]2O[C@H](CO)[C@@H](O)[C@H](O)[C@H]2O)cc1O [Compound 7, kazinol C-2′,3″-di-O-β-D-glucopyranoside]	17.8 to 24.2	17.8 to 24.2	17.8 to 24.2	17.8 ± 1.65	24.2 ± 1.26	23.6 ± 0.52
